In patent US11890382B2, “Edible plant-derived microvesicle compositions for diagnosis and treatment of disease” (University of Louisville Research Foundation, Inc., priority 2011, dated 2024):

Columns and labels:
A549 cells = experiment: Uptake of labeled EPNVs by A549 cells; type: cell-based, human; conditions: 37° C.; sodium azide 50 mM, 3 and 6 hour
Protocol: For uptake experiments, tumor cells were grown in 12-well plates with Eagle's minimal essential medium (EMEM) in the presence of 10% fetal bovine serum (FBS) for 24 h. […] After washing with cold PBS 5×, cells were trypsinized with 0.25% Trypsin-EDTA (Invitrogen, Carlsbad, CA) and washed an additional two time. Finally, the cells were resuspended in flow cytometry buffer and analyzed by flow cytometry (BD Accuri™ C6 Cytometer, New Jersey USA) and FlowJo Version 7.6 software (TreeStar Inc). The data presented were based on the mean fluorescence signal for 50,000 cells collected. All assays were performed in triplicate. […]
The cultured cells were then washed with PBS 3×. The percentages of PKH26^+ cells were quantified by FACS analysis (BD Accuri™ Flow Cytometer) and FlowJo Version 7.6 software (TreeStar Inc.).
After washing 3×, PKH26+ cells was analyzed using FACS.
After washing 3× with PBS (pH7.4), PKH26^+ cells were determined by FACS analysis as previously described. Cells exposed to the vehicle (PBS; pH 7.4), served as a control for intrinsic fluorescence, both in the presence and the absence of 50 mM sodium azide. The data were analyzed by FACS (BD Accuri™ Flow Cytometer) and FlowJo Version 7.6 software (TreeStar Inc). […]

[1] = tested on: CT26, SW620 and 4T1 tumors; experiment: EPNV mediated targeting and therapy, statements for all three tumor models; conditions: mouse
Protocol: In the first set experiments, six-week-old female BALB/c-SCID mice (Jackson Lab) were injected subcutaneously with the human colon cancer SW620 cell line (5.0×10^6 cells/mouse in 50 μl of PBS). In the second set of experiments, six-week-old female BALB/c mice (Jackson Lab) were injected subcutaneously with murine colon cancer CT26 cell line (1.0×10^6 cells/mouse in 50 μl of PBS). In the third set of experiments, six-week-old female BALB/c mice (Jackson Lab) were injected at a mammary fat pad with the murine breast tumor 4T1cell line (1.0×10^6 cells/mouse in 50 μl of PBS). […] Growth of the tumors was measured.

[2] = tested on: colitis-associated cancer (CAC); experiment: AOM/DSS colitis-associated colon cancer model; type: in vivo, mice; conditions: gavaged at 4 mg/kg every other day for 3 weeks
Protocol: Colitis-associated colorectal cancer (CAC) was induced as described below. Six to seven week old female mice were injected intraperitoneally (IP) with 12.5 mg/kg azoxymethane (AOM; Sigma-Aldrich Chemical Co, St. Louis, MO). Beginning on the same day, mice were provided […] dextran sulfate sodium (DSS; MP Biomedicals, Solon, OH, molecular weight 35,000-50,000 […]) water for 7 days followed by 14 days of untreated drinking water. Mice were subjected to two more DSS water—untreated drinking water cycles followed by untreated water for 28 days. […] At the termination of the study, mice were sacrificed by CO2 asphyxiation and all organs were carefully inspected for macroscopic pathological lesions. The intestines, liver, and spleen were removed, and fixed in 10% buffered formalin for a minimum of 24 h. The colon was excised, flushed with saline, the length measured, cut open longitudinally, flattened on filter paper and washed with saline. Macroscopic inspection of the colons was carefully carried out, with the number, size and location of visible tumors recorded.
Mice received a single injection of azoxymethane (AOM, 10 mg/kg body weight), followed by administration of three cycles of dextran sulfate sodium (DSS, 2% in water) as outlined in FIG. 4.

LPS induced septic shock = experiment: LPS mouse septic shock model; type: in vivo, C57BL/6 mice; conditions: amount equal to that in GELP-Cur; PBS 9/10
Text: PBS and GELPs alone (equal to the amount in GELPs-Cur) were used as controls. Mouse mortality was monitored over a period of 4 days.
Using an identical treatment protocol as described above, GELP-Cur-treatment led to 100% protection of C57BL/6 mice (10 mice/group) against LPS induced sepsis in a murine model.

[3] = Liver enzymes (ALT, GST) after oral treatment; type: in vivo, mice; conditions: last day of treatment
Text: At least ten mice were included per group.
Arthritis was induced using a standard protocol.

SMILES | effect of inhibitor on uptake of PKH26-EPNV by A549 cells (A549 cells) | further results
N=C(N)NC(=O)c1nc(Cl)c(N)nc1N [Amiloride] | did not affect | 
CC(=O)O[C@H]1C(=O)[C@@]2(C)[C@H]([C@H](OC(=O)c3ccccc3)[C@]3(O)C[C@H](OC(=O)[C@H](O)[C@@H](NC(=O)c4ccccc4)c4ccccc4)C(C)=C1C3(C)C)[C@]1(OC(C)=O)CO[C@@H]1C[C@@H]2O [PTX, paclitaxel] |  | in vivo biodistribution in sacrificed tumor bearing mice [1]: mainly targeted liver and spleen
CO/C1=C\C(C)=C\[C@@H](C)[C@@H](O)[C@@H](C)C/C(C)=C/C=C/[C@H](OC)[C@@H]([C@@H](C)[C@@H](O)[C@H](C)[C@@]2(O)C[C@@H](O)[C@H](C)[C@@H](C(C)C)O2)OC1=O [bafilomycin A1] | markedly inhibited | 
CN(C)CCCN1c2ccccc2Sc2ccc(Cl)cc21 [chlorpromazine] | greatly diminished | 
C=C1[C@@H](C)[C@H]2[C@H](Cc3ccccc3)NC(=O)[C@]23[C@H](OC(C)=O)/C=C/[C@@](C)(O)C(=O)[C@@H](C)C/C=C/[C@H]3[C@@H]1O [cytochalasin D] | greatly diminished | 
COc1cc(/C=C/C(=O)CC(=O)/C=C/c2ccc(O)c(OC)c2)ccc1O [free curcumin, curcumin] |  | average tumor number per mouse [2]: 8.5; mice died (LPS induced septic shock): 8/10; liver enzyme ALT versus PBS group ([3]; ALT (36±8.1 U/I)): not significantly different; liver enzyme GST versus PBS group ([3]; GST (25±5.2)): not significantly different
COc1ccc2c(c1)c(CC(=O)O)c(C)n2C(=O)c1ccc(Cl)cc1 [indomethacin] | did not affect | 
COC(=O)Nc1nc2ccc(C(=O)c3cccs3)cc2[nH]1 [nocodazole] | greatly diminished | 
